Key:
[1] = target: T1, VEGFR3 (Homo sapiens, UniProt P35916); experiment: VEGFR3 Phospho ELISA assay in HMVEC-dLyAD cells, VEGFC stimulated; assay type: cell-based; conditions: 1 hour compound, 250 ng/mL VEGFC 10 minutes
T1 construct: host or cells: HMVEC-dLyAD
Protocol: Adult human dermal lymphatic microvascular endothelial cells (HMVEC-dLyAD) (Cat#CC-2810, Lonza) were seeded into clear-bottom, TC treated 12 well plates (Cat #665180, Greiner Bio-One) in EGM-2MV (Cat#CC-3202, Lonza) at 180,000 cells/well (volume 1 mL), and the plates incubated at 37° C. and 5% CO2 for 6 hours. The media was replaced with EBM-2 (Cat #CC-3156, Lonza)+0.1% BSA (Cat#A8412, Sigma) and cells incubated for a further period (overnight at 37° C. and 5% CO2).
96 well Maxisorp immuno plates (Cat #439454, Nunc) were coated with 100 μL of Total VEGFR3 capture antibody (Part #841888, Human Total VEGFR3/FLT4 ELISA Kit, Cat #DYC3491, R&D Systems), or Phospho VEGFR3 Capture antibody (Part #841885, Human Phospho VEGFR3/FLT4 ELISA Kit, Cat#DYC2724, R&D Systems). The plates were covered and incubated at room temperature overnight.
The coating antibody was flicked out and the plates washed three times with Wash Buffer (Phosphate buffered saline (137 mM NaCl, […], […], […], pH 7.2-7.4), 0.05% Tween 20). 300 μL of blocking buffer (5% v/v Tween 20, 5% w/v sucrose in PBS) was then added to wells and plate incubated for 2 hours at room temperature. Blocking solution is flicked out and plates washed three times and tapped dry.
Compound dilution series were prepared in EBM-2 (Cat #CC-3156, Lonza)+0.1% BSA (Cat#A8412, Sigma) with constant 0.1% DMSO concentration. 439 μL of sample or vehicle control was added to the cell monolayers. Cells are treated for 1 hour at 37° C. and 5% CO2. 250 ng/mL Recombinant human VEGFC (Cat #2179-VC, R & D Systems) added to wells and plates incubated for an additional 10 minutes at 37° C. and 5% CO2.
The media and compounds were removed and the cell monolayer washed once in Dulbecco's Phosphate Buffered Saline (Cat #21600-044, Invitrogen). 130 μL of Lysis buffer added to wells and cell lysate harvested and transferred to tubes and stored on ice. Complete lysis buffer was prepared by adding 10 μL Protease Inhibitor Cocktail (Cat #P8340, Sigma-Aldrich), 10 μL PMSF (Phenylmethanesulfonyl fluoride, Cat #P7626, Sigma-Aldrich, prepared as 500 mM DMSO stock) per 1 mL of Phosphosafe™ Extraction Reagent (Cat #71296, Merck).
The harvested samples were then diluted 1:2 in IC Diluent #18 (5% Tween 20/PBS) and 100 μL transferred to the Total and Phospho VEGFR3 coated, blocked and washed 96 well plates and incubated for 2 hours at room temperature. The plates were then washed three times in wash buffer as described above and tapped dry.
For detection of Total VEGFR3100 μL of Detection antibody (Total VEGFR3 Detection Antibody Part#841888 in Total VEGFR3 kit) diluted in IC Diluent #1 (1% w/v BSA (Cat #A7906, Sigma-Aldrich)/PBS) was added to wells and the plate incubated for 2 hours at room temperature. The plate was then washed three times in wash buffer and tapped dry. 100 μL of streptavidin-HPR diluted in IC diluent #1 Streptavidin-HRP, Part #890803 in Total VEGFR3 kit) was added to wells and incubated at room temperature for 20 minutes followed by washing as described above 100 μL Substrate solution (3,3′,5,5′-Tetramethylbenzidine (TMB) Liquid Substrate System for ELISA, Cat #T0440, Sigma-Aldrich) was added and the plate incubated for 20 minutes in the dark at room temperature followed by the addition of 50 μL stop solution (2 M H2SO4).
Total VEGFR3 levels were quantified using a Multiskan Ascent plate reader and Ascent software fitted with 450 nm filter.
For detection of Phospho VEGFR3, 100 μL of Detection antibody (Anti-Phospho-Tyrosine-HRP Detection Antibody, Part #841403 in Phospho VEGFR3 kit) was diluted in IC Diluent #1 (1% w/v BSA/PBS), added to the wells and the plate incubated for 2 hours at room temperature. The plate was then washed three times in wash buffer as described above and tapped dry. […]

[2] = target: T2, VEGFR3 cytoplasmic domain (Homo sapiens, UniProt P35916); experiment: VEGFR3 biochemical assay (AlphaScreen); conditions: GST-VEGFR3 cytoplasmic domain, 500 μM ATP (modified form: His-fusion, 1 μM ATP)
T2 construct: VEGFR3 cytoplasmic domain (amino acids 798-1298) was purchased as N-terminal GST-fusion protein; GST (N); purchased
Protocol: Compounds of the invention may be tested for in vitro activity in the following assay: A biotin labelled peptide is used as substrate (amino acid sequence: Biotin-[…]NH2). VEGFR3 cytoplasmic domain (amino acids 798-1298) was purchased as N-terminal GST-fusion protein (“the enzyme”). The 15 μL assay reactions are run in Greiner brand white 384-well low volume plates. All reactions contained 10 mM HEPES pH 7.4, 10 mM MgCl2, 0.01% (v/v) Tween-20, 50 μM Na3VO4, 0.01% (w/v) albumin from chicken egg white, 1 mM Dithiothreitol, 111 nM peptide substrate, 500 μM ATP, and 3.8 ng/reaction enzyme, with the enzyme being omitted from negative control reactions. Compounds were added in a volume of […] from dilution series prepared in DMSO, positive and negative control reactions receiving the same volume DMSO without compound. The plates were sealed with adhesive seals and incubated for 90 minutes at 30 degree Celsius. The reactions were stopped with the detection reagents added at the same time as follows: Product formation was quantified as amplified luminescence between PerkinElmer AlphaScreen™ beads, using Streptavidin-coated donor and anti-phosphotyrosine (P-Tyr-100) acceptor beads. To each reaction, 5 μL containing 10 mM HEPES pH 7.4, 25 mM NaCl, 100 mM EDTA, 0.01% (v/v) Tween-20, and 6.25 μg/mL of each bead type were added. Plates were incubated for 6 hours before being read on a PerkinElmer EnVision™ plate reader in HTS Alphascreen™ mode. IC50 values were obtained by calculating percent inhibition (% I) for each reaction relative to controls on the same plate (% I=(I-CN)/(CP-CN) where CN/CP are the averages of the negative/positive reactions, respectively), then fitting the % I data vs. compound concentration [I] to % I=(A+((B−A)/(1+((C/[I])̂D)))) where A is the lower asymptote, B is the upper asymptote, C is the IC50 value, and D is the slope factor.
The above assay was also run in a modified form in some cases (indicated below with *). In these cases, VEGFR3 cytoplasmic domain (amino acids 818-1177, lacking 949-1002 of UniProt accession number P35916) was expressed and purified as N-terminal Hexa-His-fusion protein (“the enzyme”), rather than using the N-terminal GST-fusion protein. The assay conditions were the same as above but with 1 μM ATP and 8 ng/reaction of the enzyme.

T2 sequence (P35916 798-1298 isoform P35916-1): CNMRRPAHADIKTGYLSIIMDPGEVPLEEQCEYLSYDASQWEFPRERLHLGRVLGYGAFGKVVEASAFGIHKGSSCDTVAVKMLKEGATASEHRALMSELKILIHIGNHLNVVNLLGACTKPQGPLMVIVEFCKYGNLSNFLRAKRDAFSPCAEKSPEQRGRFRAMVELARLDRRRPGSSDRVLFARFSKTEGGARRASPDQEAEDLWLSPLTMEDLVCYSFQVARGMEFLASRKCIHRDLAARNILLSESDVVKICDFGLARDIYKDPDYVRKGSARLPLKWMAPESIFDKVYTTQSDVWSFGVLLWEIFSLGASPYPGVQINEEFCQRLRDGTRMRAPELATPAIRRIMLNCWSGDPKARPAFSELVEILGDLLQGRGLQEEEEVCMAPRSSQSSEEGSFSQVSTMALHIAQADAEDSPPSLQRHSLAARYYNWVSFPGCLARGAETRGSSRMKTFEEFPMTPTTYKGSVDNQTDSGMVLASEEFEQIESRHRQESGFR
T1 sequence (P35916 25-1363): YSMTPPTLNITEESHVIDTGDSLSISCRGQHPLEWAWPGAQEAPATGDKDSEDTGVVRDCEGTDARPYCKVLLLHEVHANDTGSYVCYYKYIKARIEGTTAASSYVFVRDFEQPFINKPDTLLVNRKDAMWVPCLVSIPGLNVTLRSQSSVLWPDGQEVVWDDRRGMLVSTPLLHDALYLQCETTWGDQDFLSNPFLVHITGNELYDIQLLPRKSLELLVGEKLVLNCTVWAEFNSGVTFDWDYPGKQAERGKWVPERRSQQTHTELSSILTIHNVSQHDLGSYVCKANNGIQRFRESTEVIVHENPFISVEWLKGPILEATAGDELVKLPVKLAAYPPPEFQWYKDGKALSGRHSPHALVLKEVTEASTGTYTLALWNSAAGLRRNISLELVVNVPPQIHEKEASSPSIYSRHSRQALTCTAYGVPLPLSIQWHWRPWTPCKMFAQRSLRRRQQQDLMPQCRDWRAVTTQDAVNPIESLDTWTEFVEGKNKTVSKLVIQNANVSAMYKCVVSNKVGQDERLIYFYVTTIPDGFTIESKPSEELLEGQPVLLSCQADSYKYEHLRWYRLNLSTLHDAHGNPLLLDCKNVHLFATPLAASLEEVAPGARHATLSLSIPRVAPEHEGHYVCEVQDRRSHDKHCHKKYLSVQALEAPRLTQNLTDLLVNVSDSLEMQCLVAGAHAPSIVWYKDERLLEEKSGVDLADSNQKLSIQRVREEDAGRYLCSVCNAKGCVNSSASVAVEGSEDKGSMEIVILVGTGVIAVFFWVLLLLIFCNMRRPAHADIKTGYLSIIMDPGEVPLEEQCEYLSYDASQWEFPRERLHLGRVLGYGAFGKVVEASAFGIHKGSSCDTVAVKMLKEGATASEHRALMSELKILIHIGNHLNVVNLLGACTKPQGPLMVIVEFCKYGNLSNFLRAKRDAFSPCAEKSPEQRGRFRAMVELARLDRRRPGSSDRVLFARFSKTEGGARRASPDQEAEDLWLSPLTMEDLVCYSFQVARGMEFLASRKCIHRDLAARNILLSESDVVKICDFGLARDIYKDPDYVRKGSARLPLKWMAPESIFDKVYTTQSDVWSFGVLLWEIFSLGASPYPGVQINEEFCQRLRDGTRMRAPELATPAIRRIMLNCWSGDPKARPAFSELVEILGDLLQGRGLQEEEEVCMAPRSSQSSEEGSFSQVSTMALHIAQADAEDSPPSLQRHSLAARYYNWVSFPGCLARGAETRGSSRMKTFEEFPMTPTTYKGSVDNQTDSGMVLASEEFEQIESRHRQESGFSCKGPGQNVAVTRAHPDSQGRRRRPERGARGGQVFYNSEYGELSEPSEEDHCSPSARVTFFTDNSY

IC50 [1] [nM] | IC50 [2] [nM] | Compound
121 | 39 | Cc1cnc(Nc2ccc(N3CCNCC3)cc2)nc1CCc1ccccc1CC(N)=O [Compound 2, 2-(2-(2-(5-methyl-2-((4-(piperazin-1-yl)phenyl)amino)pyrimidin-4-yl)ethyl)phenyl)acetamide]
156 | 97 | NCc1ccc(Nc2ncc(C(F)(F)F)c(CCc3ccccc3CC(N)=O)n2)cc1 [Compound 3, 2-(2-(2-(2-((4-(Aminomethyl)phenyl)amino)-5-(trifluoromethyl)pyrimidin-4-yl)ethyl)phenyl)acetamide]
210 | 28 | Cc1cnc(Nc2ccc(C3CCN(C)CC3)nc2)nc1CCc1ccccc1CC(N)=O [Compound 5, 2-(2-(2-(5-methyl-2-((6-(1-methylpiperidin-4-yl)pyridin-3-yl)amino)pyrimidin-4-yl)ethyl)phenyl)acetamide]
62 | 23 | NC(=O)Cc1ccccc1CCc1nc(Nc2ccc(C(=O)N3CCNCC3)cc2)ncc1C(F)(F)F [Compound 6, 2-(2-(2-(2-((4-(piperazine-1-carbonyl)phenyl)amino)-5-(trifluoromethyl)pyrimidin-4-yl)ethyl)phenyl)acetamide]
39 | 26 | Cc1cc(Nc2ncc(C(F)(F)F)c(CCc3ccccc3CC(N)=O)n2)ccc1C1CCNCC1 [Compound 11, 2-(2-(2-(2-((3-methyl-4-(piperidin-4-yl)phenyl)amino)-5-(trifluoromethyl)pyrimidin-4-yl)ethyl)phenyl)acetamide]
116 | 20 | Cc1cc(Nc2ncc(C(F)(F)F)c(CCc3ccccc3CC(N)=O)n2)ccc1C1CCN(C)CC1 [Compound 12, 2-(2-(2-(2-((3-methyl-4-(1-methylpiperidin-4-yl)phenyl)amino)-5-(trifluoromethyl)pyrimidin-4-yl)ethyl)phenyl)acetamide]
214 | 22 | Cc1cnc(Nc2ccc(C3CCNCC3)cc2)nc1CCc1ccccc1CC(N)=O [Compound 16, 2-(2-(2-(5-methyl-2-((4-(piperidin-4-yl)phenyl)amino)pyrimidin-4-yl)ethyl)phenyl)acetamide]
18 | 46 | CC(N)c1ccc(Nc2ncc(C(F)(F)F)c(CCc3ccccc3CC(N)=O)n2)cc1 (stereo not drawn) [Compound 18, 2-(2-(2-(2-(4-(1-aminoethyl)phenylamino)-5-(trifluoromethyl)pyrimidin-4-yl)ethyl)phenyl)acetamide]

The remaining lines, values behind:

Compound | IC50 [1] [nM] | IC50 [2] [nM]
Cc1cnc(Nc2ccc(C3CCNCC3)nc2)nc1CCc1ccccc1CC(N)=O [Compound 4, 2-(2-(2-(5-methyl-2-((6-(piperidin-4-yl)pyridin-3-yl)amino)pyrimidin-4-yl)ethyl)phenyl)acetamide] | 2220 | 35
Cc1cnc(Nc2cccnc2)nc1CCc1ccccc1CC(N)=O [Compound 24, 2-(2-(2-(5-methyl-2-(pyridin-3-ylamino)pyrimidin-4-yl)ethyl)phenyl)acetamide] | 169 | 34
Cc1cnc(Nc2ccc(OC3CCNCC3)cc2)nc1CCc1ccccc1CC(N)=O [Compound 26, 2-(2-(2-(5-methyl-2-((4-(piperidin-4-yloxy)phenyl)amino)pyrimidin-4-yl)ethyl)phenyl)acetamide] | 83 | 24
Cc1cnc(Nc2cnn(C)c2)nc1CCc1ccccc1CC(N)=O [Compound 28, 2-(2-(2-(5-methyl-2-((1-methyl-^1H-pyrazol-4-yl)amino)pyrimidin-4-yl)ethyl)phenyl)acetamide] | 190 | 24
Cc1cnc(Nc2ccc(C3(N)COC3)cc2)nc1CCc1ccccc1CC(N)=O [Compound 31, 2-(2-(2-(2-(4-(3-aminooxetan-3-yl)phenylamino)-5-methylpyrimidin-4-yl)ethyl)phenyl)acetamide] | 107 | 23
Cc1cnc(Nc2cnn(C3CCNCC3)c2)nc1CCc1ccccc1CC(N)=O [Compound 33, 2-(2-(2-(5-Methyl-2-((1-(piperidin-4-yl)-^1H-pyrazol-4-yl)amino)pyrimidin-4-yl)ethyl)phenyl)acetamide] | 1250 | 28
CC(N)c1ccc(Nc2ncc(Cl)c(CCc3ccccc3CC(N)=O)n2)cc1 (stereo not drawn) [Compound 37, 2-(2-(2-(2-(4-(1-aminoethyl)phenylamino)-5-chloropyrimidin-4-yl)ethyl)phenyl)acetamide] | 26 | 12

From US20150225377A1, “VEGFR3 INHIBITORS” (CANCER THERAPEUTICS CRC PTY LIMITED, priority 2012, published 2015)
